Reference: patent publication US5143938A, “Propanamines, their pharmacological properties and their application for therapeutic in particular antidiarrheal, purposes” (Jouveinal S.A., priority 1990, dated 1992)

Assays:
[1] = Activity with respect to gastrointestinal transit in rats (semi-solid charcoal meal); format: in vivo; conditions: for effect on intestinal transit, in words / Activity with respect to intestinal transit, percentage change relative to the controls: 30 mg/kg oral; for Activity with respect to intestinal transit, percentage change relative to the controls: one hour before meal, positive = accelerated, negative = slowed down
Protocol: The test is carried out according to the technique described by Green A. F., J. Pharmacol., 1959, 14, 26-34. It consists in determining in rats the distance travelled in the animal's intestine by a semi-solid meal after a specified time.
The test products are administered orally one hour before gavage of the animal with a semi-solid meal containing vegetable charcoal as a tracer. 15 minutes after the administration, the animal is sacrificed and the distance travelled in the intestine by the meal is expressed in relation to the total length.
This ratio, for the treated animals, is compared with that observed in control animals receiving only the meal.
In this test, the products of the invention were administered on the basis of 30 mg/kg and the results expressed as a percentage change relative to the controls, the ratio being positive when transit is accelerated and negative when it is slowed down; […]

[2] = Antidiarrheal activity in rats: inhibition of castor oil-induced diarrhea; format: in vivo
Protocol: This test is performed by studying the activity of the test compounds with respect to the diarrheaphenomenon caused in animals by the administration of castor oil.
The method consists in administering the test product in solution orally, one hour before the administration, also oral, of 1.0 ml of castor oil per animal.
The animals are then observed, and the number of rats which emit liquid stools is determined on an all-or-nothing basis every hour during the seven hours following administration of the diarrheal agent.

in vivo = conditions: mouse, po
[3] = mouse, in vivo
[4] = Rattus norvegicus, po, 3 h; read-out: ED 50 at 3 h., antidiarrheal activity

Row | SMILES | Activity with respect to intestinal transit, percentage change relative to the controls [1] | ED50 [2, 4] | further results
1 | CCC(CCC1(c2cc(OC)cc(OC)c2)OCCO1)(NC)c1ccccc1 (stereo not drawn) [Example 3.c, 2-(3-N-methylamino-3-phenyl-pentan-1-yl)-2-(3,5-dimethoxyphenyl)-1,3-dioxolane] | -3% | 16 mg/kg | effect on intestinal transit, in words [1]: zero
2 | CCC(CCC1(c2cc(OC)c(OC)c(OC)c2)OCCO1)(NC)c1ccc(C(F)(F)F)cc1 (stereo not drawn) [Example 3.f, 2-[3-N-Methylamino-3-(4-trifluoromethylphenyl)-pentan-1-yl]-2-(3,4,5-trimethoxyphenyl)-1,3-dioxolane] | -17% | 6 mg/kg | –
3 | CCC(CCC(=O)c1cc(OC)c(OC)c(OC)c1)(c1ccc(Cl)cc1)N(C)C (stereo not drawn) [Example 9.a, 4-(4-chlorophenyl)-4-N,N-dimethylamino-1-(3,4,5-trimethoxyphenyl)-hexan-1-one] | -15% | 6 mg/kg | –
4 | CCC(CCC(=O)c1cc(OC)c(OC)c(OC)c1)(c1ccc(C)cc1)N(C)C (stereo not drawn) [Example 9.b.2, 4-N,N-dimethylamino-4-(4-methylphenyl)-1-(3,4,5-trimethoxyphenyl)-hexan-1-one] | -14% | 2 mg/kg | –
5 | CCC(CCC(=O)c1cc(OC)c(OC)c(OC)c1)(c1ccc(C(F)(F)F)cc1)N(C)C (stereo not drawn) [Example 9.c, 4-N,N-dimethylamino-4-(4-trifluoromethvlphenvl)-1-(3,4,5-trimethoxyphenyl)-hexan-1-one] | +2% | 15 mg/kg | effect on intestinal transit, in words [1]: zero
6 | CCC(CCC(=O)c1ccc(Cl)c(Cl)c1)(c1ccccc1)N(C)C (stereo not drawn) [Example 9.g, 1-(3,4-dichlorophenyl)-4-N,N-dimethylamino-4-phenyl-hexan-1-one] | -25% | 3 mg/kg | –
7 | C=CCN(C)C(CC)(CCC(=O)c1ccccc1)c1ccccc1 (stereo not drawn) [Example 10, N-allyl-1,4-diphenyl-4-N-methylamino-hexan-1-one] | -6% | 24.2 mg/kg | –
8 | CCC(CCC1(c2ccccc2)SCCS1)(c1ccccc1)N(C)C (stereo not drawn) [Example 12, 2-(3-N,N-dimethylamino-3-phenyl-pentan-1-yl)-2-phenyl-1,3-dithiolane] | -12% | 23.1 mg/kg | –
9 | CN(C)C(=O)C(CCN1CCC(O)(c2ccc(Cl)cc2)CC1)(c1ccccc1)c1ccccc1 [Loperamide, 4-(4-chlorophenyl)-4-hydroxy-N,N-dimethyl-α,α-diphenyl-1-piperidinebutanamide, reference compound] | – | – | ED50 ([1]; Rattus norvegicus, po, read-out: ED50 slowing down transit by 50%): 1.79 mg/kg; TD50 (in vivo): 75 mg/kg; toxicity at the administration doses, in words [3]: too toxic; ED50 ([2]; Rattus norvegicus, po, 3 h, read-out: ED 50 at 3 h., antidiarrheal activity): 0.2 mg/kg
10 | CN1CC[C@]23c4c5ccc(O)c4O[C@H]2[C@@H](O)C=C[C@H]3[C@H]1C5 [Morphine, reference compound] | – | – | ED50 slowing down transit by 50% ([1]; oral, dose at which activity is -50%): 10 mg/kg; ED 50 at 3 h., antidiarrheal activity ([2]; oral, one hour before 1.0 ml castor oil; inhibition of effect in 50% of animals at 3 h): 0.83 mg/kg
